From US12221422B2, “Compounds and their use for the treatment of alpha1-antitrypsin deficiency” (CENTESSA PHARMACEUTICALS (UK) LIMITED, priority 2018, dated 2025) come the findings set out here.

One series can be described thus: Aqueous solubility. It counts as physicochemical. To be noted: thermodynamic from solid; water, shaken for 5 minutes until clear solution. The procedure:
Compounds of the invention were shaken for 5 minutes with increasing amounts of water until a clear solution had formed. Using this method the solubility of N,N-dimethyl-4-((6-oxopyrimidin-1(6H)-yl)methyl)benzamide was greater than 100 mg/ml.

A further series has as its target human Z A1AT (Homo sapiens, UniProt P01009, E366K). Description: Circulating human Z A1AT levels in huZ mice. It counts as in vivo, huZ mouse. Details: from tissue; host or cells: huZ (PiZZ) transgenic mice, line Z11.03, C57Bl/6 background; made in liver, measured in plasma. To be noted: huZ mice, 5, 15 or 50 mg/kg twice a day by oral gavage, 14 days, plasma days 12-14. An excerpt:
The huZ mouse (also referred to as the PiZZ mouse) is a transgenic mouse strain that contains multiple copies of the Z variant of the human A1AT gene, developed by two separate groups Dycaico et al (Science (1988) 242:1409-12) and Carlson et al (J. Clin Invest (1989) 83:1183-90). PiZZ mice are on a C57Bl/6 background and express the human Z A1AT protein in liver tissue. The mice used in this study are from the progeny of Carlson and colleagues (transgenic line Z11.03). […]
HuZ mice (n=4/group; male or female) with basal human A1AT plasma levels of between 200-600 μg/ml were treated with either vehicle or N,N-dimethyl-4-((6-oxopyrimidin-1(6H)-yl)methyl)benzamide at 5, 15 or 50 mg/kg twice a day by oral gavage for 14 consecutive days. […] Human Z A1AT levels in mouse plasma samples were measured by ELISA (Human Serpin A1/α1-antitrypsin duo set ELISA, R& D Systems, DY1268) per manufacturer's instructions.
Briefly, a 96 well plate was coated with human A1AT capture antibody overnight at room temperature (1:180 dilution from stock, 100 μl final volume/well). […] After which, 50 μl stop solution (2M H2SO4) was added and optical density (OD) of each well was read at 450 nm with 570 nm blank subtracted from each well using a microplate reader. […]
The effect of N,N-dimethyl-4-((6-oxopyrimidin-1(6H)-yl)methyl)benzamide on circulating levels of human Z A1AT was assessed in a huZ mouse model. […]

Sequence of human Z A1AT (P01009 25-418 E366K): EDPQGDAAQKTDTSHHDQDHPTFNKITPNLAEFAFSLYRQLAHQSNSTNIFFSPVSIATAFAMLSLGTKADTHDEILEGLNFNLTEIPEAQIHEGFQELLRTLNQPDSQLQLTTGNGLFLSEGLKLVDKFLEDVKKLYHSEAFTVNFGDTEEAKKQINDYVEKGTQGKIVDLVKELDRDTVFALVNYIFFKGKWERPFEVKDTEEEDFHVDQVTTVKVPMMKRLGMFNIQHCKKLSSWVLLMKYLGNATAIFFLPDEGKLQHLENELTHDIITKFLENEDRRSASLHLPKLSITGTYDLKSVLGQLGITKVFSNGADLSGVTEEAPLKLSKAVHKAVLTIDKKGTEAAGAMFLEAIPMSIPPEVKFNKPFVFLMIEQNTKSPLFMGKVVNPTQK

`CN(C)C(=O)c1ccc(Cn2cnccc2=O)cc1` [N,N-dimethyl-4-((6-oxopyrimidin-1(6H)-yl)methyl)benzamide] yielded a solubility at 5 min in “Aqueous solubility” above 100 mg/mL. Moreover, on human Z A1AT, the “circulating human Z A1AT compared to baseline levels” value is “stimulates secretion of human Z A1AT compared to baseline levels in huZ mice in a dose dependent manner”.

What is called solubility is the dissolved amount per volume that the medium holds. Low values mean a poorly soluble substance, high ones a readily soluble substance.
